Results on one compound are retold here after ChEMBL document CHEMBL1155531, “Structure guided design of 5-arylindazole glucocorticoid receptor agonists and antagonists” (J Med Chem, 2010).

One series has as its target T1, Glucocorticoid receptor (Homo sapiens, UniProt P04150).
T1 sequence (P04150 whole entry): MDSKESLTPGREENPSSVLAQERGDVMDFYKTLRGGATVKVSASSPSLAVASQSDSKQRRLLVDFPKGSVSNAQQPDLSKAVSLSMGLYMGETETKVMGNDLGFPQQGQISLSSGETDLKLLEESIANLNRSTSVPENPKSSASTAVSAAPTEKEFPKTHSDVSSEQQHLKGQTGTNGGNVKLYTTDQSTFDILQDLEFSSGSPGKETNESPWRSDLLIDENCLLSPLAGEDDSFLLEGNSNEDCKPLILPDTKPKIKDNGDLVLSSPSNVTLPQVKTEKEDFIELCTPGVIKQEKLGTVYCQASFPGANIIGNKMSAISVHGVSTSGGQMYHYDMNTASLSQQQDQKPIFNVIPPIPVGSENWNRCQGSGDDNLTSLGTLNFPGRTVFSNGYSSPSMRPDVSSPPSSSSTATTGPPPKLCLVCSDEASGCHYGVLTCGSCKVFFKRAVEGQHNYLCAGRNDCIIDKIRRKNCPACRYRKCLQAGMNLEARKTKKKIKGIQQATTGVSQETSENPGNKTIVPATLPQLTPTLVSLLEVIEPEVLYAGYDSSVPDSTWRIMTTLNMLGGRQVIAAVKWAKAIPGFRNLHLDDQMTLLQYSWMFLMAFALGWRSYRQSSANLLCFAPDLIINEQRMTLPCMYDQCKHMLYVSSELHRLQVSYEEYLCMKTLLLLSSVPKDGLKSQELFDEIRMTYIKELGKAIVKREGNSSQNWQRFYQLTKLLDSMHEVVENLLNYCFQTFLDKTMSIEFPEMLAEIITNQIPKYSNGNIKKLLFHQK
In words: Displacement of fluorescent-labeled Dexamethasone from GR by fluorescent polarization assay.

For the next series, the target named is T2, Progesterone receptor (Homo sapiens, UniProt P06401).
T2 sequence (P06401 whole entry): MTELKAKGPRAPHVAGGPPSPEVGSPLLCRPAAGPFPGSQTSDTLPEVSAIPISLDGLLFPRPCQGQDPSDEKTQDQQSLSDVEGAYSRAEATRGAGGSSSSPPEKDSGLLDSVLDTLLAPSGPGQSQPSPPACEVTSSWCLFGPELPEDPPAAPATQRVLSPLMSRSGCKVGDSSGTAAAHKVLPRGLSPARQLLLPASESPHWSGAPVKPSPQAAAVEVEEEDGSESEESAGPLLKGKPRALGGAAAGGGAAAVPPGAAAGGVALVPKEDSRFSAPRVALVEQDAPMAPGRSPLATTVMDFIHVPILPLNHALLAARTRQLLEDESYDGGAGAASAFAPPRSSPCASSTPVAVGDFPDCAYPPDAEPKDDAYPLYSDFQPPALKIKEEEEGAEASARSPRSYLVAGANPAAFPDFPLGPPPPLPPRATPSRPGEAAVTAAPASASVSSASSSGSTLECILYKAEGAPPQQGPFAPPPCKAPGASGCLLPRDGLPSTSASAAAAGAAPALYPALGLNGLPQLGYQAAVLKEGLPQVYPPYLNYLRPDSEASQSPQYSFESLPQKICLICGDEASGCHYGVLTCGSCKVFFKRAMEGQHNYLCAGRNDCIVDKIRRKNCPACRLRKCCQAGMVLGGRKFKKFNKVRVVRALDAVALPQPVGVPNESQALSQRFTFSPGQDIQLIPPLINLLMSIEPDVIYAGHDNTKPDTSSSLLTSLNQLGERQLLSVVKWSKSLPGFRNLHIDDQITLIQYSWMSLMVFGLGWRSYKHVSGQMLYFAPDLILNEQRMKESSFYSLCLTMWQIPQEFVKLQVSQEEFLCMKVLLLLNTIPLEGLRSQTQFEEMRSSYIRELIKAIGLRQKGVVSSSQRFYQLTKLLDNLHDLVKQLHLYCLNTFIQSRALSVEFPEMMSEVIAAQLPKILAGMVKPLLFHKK
Nature of the series: Binding affinity to PR.

Series [1] can be described thus: Antiinflammatory activity in human primary synovial fibroblasts assessed as inhibition of IL1-induced IL8 release after 18 hrs by MSD technology. It counts as functional.
The nature of series [2]: Toxicity in human skeletal muscle cells assessed as increase in glutamine synthase mRNA level after 18 hrs by PCR.
A short description of series [3]: Plasma clearance in CD rat at 1 mg/kg, po and 1 mg/kg, iv. The class given is ADME, organism-based.
Series [4] can be described thus: Volume of distribution at steady state in CD rat at 1 mg/kg, po and 1 mg/kg, iv. The class given is ADME, organism-based. As to conditions: in vivo, read-out: Vdss.
Series [5] can be described thus: Plasma clearance in DBA1 mouse at 1 mg/kg, po and 1 mg/kg, iv. The class given is ADME, organism-based.
A short description of series [6]: Tmax in DBA1 mouse at 1 mg/kg, po. It counts as ADME, organism-based. On the set-up: dose 1 mg/kg, route oral. To be noted: in vivo.
A short description of series [7]: Plasma concentration in mouse bearing mouse NIH-3T3 cells integrated with MMTV reporter gene at 10 mg/kg, po after 1 hr. The class given is ADME, organism-based, NIH3T3. Set-up: dose 10 mg/kg, route oral. In general terms: In a reporter assay the amount or activity of a reporter protein is the signal.
The nature of series [8]: Relative plasma concentration in mouse assessed as ratio of plasma concentration in mouse at 10 mg/kg, po to IC50 for NF-kappaB transrepression activity in A549 cells expressing MMTV reporter gene. It counts as ADME, organism-based. On the set-up: dose 10 mg/kg, route oral. To be noted: in vivo.
The nature of series [9]: Relative plasma concentration in mouse assessed as ratio of plasma concentration in mouse at 0.1 mg/kg, po to IC50 for NF-kappaB transrepression activity in A549 cells expressing MMTV reporter gene. It counts as ADME, organism-based. On the set-up: dose 0.1 mg/kg, route oral. To be noted: in vivo.
Series [10] is described as follows: Plasma concentration in mouse bearing mouse NIH-3T3 cells integrated with MMTV reporter gene at 100 mg/kg, po after 1 hr. On the set-up: dose 100 mg/kg, route oral. The class given is ADME, organism-based, NIH3T3.

Where only a bound is given, the exact number is not on record here.

Consider `O=S(=O)(Cc1ccccc1)Nc1ccc(-c2ccc3c(cnn3-c3ccc(F)cc3)c2)c(C(F)(F)F)c1`, for which the IC50 at Glucocorticoid receptor is 10 nM; on Progesterone receptor it was above 10000 nM; in series [1], 2 nM. Besides, the Activity result in series [2] is “Toxic”. Besides, the clearance in series [3] and in [5] was 8 mL/min/kg throughout. In series [4], the Vd came out at 2 L/kg. Besides, the Tmax in [6] came to 6 h. For the same compound, the concentration at 1 h in series [7] was found to be 2.73 µM; in [10] it was 12.1 µM. For the same compound, the results for the “fold change (FC)” value in series [8] and in series [9] were 273 and 2.5, respectively.

In general, IC50 refers to the concentration that gives 50% inhibition. The Tmax is the time from dosing to the highest level.
